# Read-outs that look alike come from different tables or passages of the source.
# Experiments:
# [1] = Compound exposure in plasma and liver of HFHC fed male mice; type: in vivo; conditions: C57BL/6J, mouse, oral
# [2] = tested on: FXR related genes (BSEP, SHP) in primary human hepatocytes; assay: Gene expression in human primary hepatocytes (BSEP, SHP); type: cell-based; conditions: 24 hours incubation
# Experimental: The test compound was dissolved in buffer to give a 10 mM stock solution. The compound was serially diluted to the desired concentrations and then incubated with human primary hepatocytes for 24 hours at 37° C. in a CO2 incubator. After incubation, the media was removed and the RNA harvested using the Trizol-CHCl3 method and quantified using Nano drop. The RNA was then Reverse Transcribed to cDNA using a superscript vilo cDNA synthesis kit. The cDNA with respective Taqman primers, master mix are then amplified using quantitative RT-PCR system. […] The compounds of examples 2 and 3 upregulate FXR related and disease relevant genes on incubation with primary human hepatocytes. […] It is a uni-directional, ATP-dependent efflux transporter that plays an important role in the elimination of bile salts from the hepatocyte into the bile canaliculi for export into the gastrointestinal tract. FXR also induces the expression of small heterodimer partner (SHP) which controls a complex set of genes in multiple metabolic pathways. It reduces the expression of CYP7A1, a liver-specific enzyme that catalyzes the first and rate-limiting step in one of the two pathways for bile acid biosynthesis.
# [3] = tested on: HFHC fed male C57BL/6 mice; assay: In-vivo efficacy in high fat high cholesterol diet (HFHC) fed male C57BL/6 mice; conditions: oral, 3 mg/kg BID, 3 mg/kg QD and 10 mg/kg BID, after 28 days
# Experimental: C57BL/6J male mice were purchased at the age of 8 weeks. After an acclimation period of 1 week, animals were maintained on high fat high cholesterol diet (Research diets) with 60% kcal from fat plus 0.5% (w/w) extra cholesterol (Research diet, D02051401) for a period of 4 weeks. Age matched control animals (n=6) were maintained on normal chow. Mice were dosed with vehicle, test compounds and GW4064 morning (7.00 AM) and evening (5:00 PM) from day 0 to 27. At 28th day, animals were dosed at 7:00 AM and kept on fasting for next 4 hours before blood and tissues collection. Plasma samples separated from collected blood were stored at −20° C. immediately for estimation analysis. The samples were analyzed using the Siemens Dimension RxL Max Clinical chemistry analyzer.
# Right liver lobe was used for the test compounds exposure, triglyceride and cholesterol estimation. Liver tissues were dissected, weighed and snap frozen and stored at −80° C. for further analysis of hepatic triglyceride, cholesterol and compound exposure. In brief, stored tissues were thawed to room temperature and triglycerides were extracted by homogenizing 25 mg of liver tissues in 1 ml of 5% Triton X100 (Lot No. 61K01741-Sigma Aldrich) in water. Homogenized tissues were slowly heated to 80° C. in water bath for 5 minutes. The samples were cooled down and again heated to solubilize all the triglycerides into solution. The samples were centrifuged for 5 minutes at 4000 RPM and supernatant was collected for quantification^3 using commercially available kit from ERBA (Lot No. B061832).
# Homogenized samples were centrifuge at 13000 g for 10 minutes to remove insoluble material. The organic phase was separated into new tube and air dried at 50° C. to remove chloroform. Thereafter, samples were vacuumed for 30 minutes to remove residue organic solvent. Dried lipids were dissolved in 200 μL of cholesterol assay buffer (provided with Sigma cholesterol assay kit Lot No. B2J210603V), sonicated for 20 minutes and vortexed until mixture was homogenous as mentioned in kit protocol. Samples were diluted with cholesterol assay buffer at (1:10) ratio to fit in standard curve and finally 50 μL of diluted samples were used for the assay.
# Compound levels were also measured in the plasma and liver to understand its distribution profile.
structure (smiles),measurement,setting,value
"Cc1cc(S(=O)[O-])cc2sc(N3[C@@H]4CC[C@H]3C[C@@H](OCc3c(-c5ccccc5OC(F)(F)F)noc3C3CC3)C4)nc12.[Na+] [Example 3, Sodium 2-(3-((5-cyclopropyl-3-(2-(trifluoromethoxy)phenyl)isoxazol-4-yl)methoxy)-8-azabicyclo[3.2.1]octan-8-yl)-4-methylbenzo[d]thiazole-6-sulfinate]",concentration at 4 h,"[1]; liver, 3 mg/kg, 3 mg/kg BID oral, 4 hours after last dose on day 28, read-out: Mean compound exposure, Liver",88.9 ng/g
same,concentration at 4 h,"[1]; liver, 10 mg/kg, 10 mg/kg BID oral, 4 hours after last dose on day 28, read-out: Mean compound exposure, Liver",198 ng/g
same,concentration at 4 h,"[1]; liver, 10 mg/kg, 10 mg/kg QD oral, 4 hours after last dose on day 28, read-out: Mean compound exposure, Liver",176 ng/g
same,concentration at 4 h,"[1]; plasma, 3 mg/kg, 3 mg/kg BID oral, 4 hours after last dose on day 28, read-out: Mean compound exposure, Plasma",3.7 ng/mL
same,concentration at 4 h,"[1]; plasma, 10 mg/kg, 10 mg/kg BID oral, 4 hours after last dose on day 28, read-out: Mean compound exposure, Plasma",11.5 ng/mL
same,concentration at 4 h,"[1]; plasma, 10 mg/kg, 10 mg/kg QD oral, 4 hours after last dose on day 28, read-out: Mean compound exposure, Plasma",5.9 ng/mL
same,"Expression of FXR related and disease relevant genes (BSEP, SHP)",[2],upregulate
same,Cholesterol levels in the liver,[3],reductions
same,Cholesterol levels in the plasma,[3],reductions
same,Liver triglycerides,[3],reductions
